Reference: US20230340011A1 (Asteroid Therapeutics, priority 2022, published 2023)
pEC50, pIC50: −log10 of the molar value. Where two headings read alike, the source gives them in different places.

How the values were obtained:
SREBP-2 = SREBP-2 (Homo sapiens (Human), UniProt Q12772); experiment: In vitro assay SREBP-2: PathHunter U2OS SREBP-2 Nuclear Translocation Cell Line, U18666A-stimulated; type: cell-based
LXRβ = LXRβ (Homo sapiens (Human), UniProt P55055); experiment: In vitro assay LXRβ: PathHunter NHR CHO cells, LXRβ / Steroid Receptor Co-activator Peptide enzyme fragment complementation; type: cell-based; details: PathHunter NHR CHO cells, full-length human LXRβ and SRCP, chemiluminescent signal; read-out: LXRβ PPI
In short: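 Co-activator recruitment measured by chemiluminescence after signal generation. The CHO line carries full-length human LXRβ tagged with ProLink and an SRCP–enzyme acceptor fusion in the nucleus; cells sat overnight at 37° C before testing, in charcoal-dextran filtered serum medium with 1% final vehicle.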

[1] = PathHunter U2OS SREBP-2 nuclear translocation cells, U18666A 10 μM, overnight (16 hours)

Chain of LXRβ (P55055 whole entry, the tested form may be a part): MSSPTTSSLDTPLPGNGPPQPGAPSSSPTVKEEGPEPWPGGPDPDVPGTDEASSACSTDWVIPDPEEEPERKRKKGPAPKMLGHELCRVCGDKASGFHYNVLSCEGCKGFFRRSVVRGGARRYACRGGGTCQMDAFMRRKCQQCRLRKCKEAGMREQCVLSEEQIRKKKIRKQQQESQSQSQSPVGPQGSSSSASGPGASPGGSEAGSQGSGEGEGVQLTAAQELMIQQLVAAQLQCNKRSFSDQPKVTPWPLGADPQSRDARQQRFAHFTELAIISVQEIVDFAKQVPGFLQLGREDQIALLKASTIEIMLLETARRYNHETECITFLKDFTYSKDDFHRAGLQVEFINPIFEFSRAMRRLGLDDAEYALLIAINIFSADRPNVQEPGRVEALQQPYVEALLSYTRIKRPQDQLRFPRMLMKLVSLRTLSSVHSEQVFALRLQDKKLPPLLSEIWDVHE

| SMILES | pIC50 (SREBP-2; [1]) | pEC50 (LXRβ) | pIC50 (SREBP-2) |
| --- | --- | --- | --- |
| C[C@H](CCc1ccccn1)[C@H]1CC[C@H]2[C@@H]3CC=C4C[C@@H](O)CC[C@]4(C)[C@H]3CC[C@]12C [Example 124, (3S,8S,9S,10R,13R,14S,17R)-10,13-dimethyl-17-((R)-4-(pyridin-2-yl)butan-2-yl)-2,3,4,7,8,9,10,11,12,13,14,15,16,17-tetradecahydro-1H-cyclopenta[a]phenanthren-3-ol] | > 6.60 | 6.00 to 6.60 |  |
| C[C@H](CCC(=O)N1CCN(c2nnnn2C)CC1)[C@H]1CC[C@H]2[C@@H]3CC=C4C[C@@H](O)CC[C@]4(C)[C@H]3CC[C@]12C [Example 606, (R)-4-((3S,8S,9S,10R,13R,14S,17R)-3-hydroxy-10,13-dimethyl-2,3,4,7,8,9,10,11,12,13,14,15,16,17-tetradecahydro-1H-cyclopenta[a]phenanthren-17-yl)-1-(4-(1-methyl-1H-tetrazol-5-yl)piperazin-1-yl)pentan-1-one] | > 6.60 | < 5.00 |  |
| CCOc1nccc(N2CCN(C(=O)CC[C@@H](C)[C@H]3CC[C@H]4[C@@H]5CC=C6C[C@@H](O)CC[C@]6(C)[C@H]5CC[C@]34C)CC2)n1 [Example 563, (R)-1-(4-(2-ethoxypyrimidin-4-yl)piperazin-1-yl)-4-((3S,8S,9S,10R,13R,14S,17R)-3-hydroxy-10,13-dimethyl-2,3,4,7,8,9,10,11,12,13,14,15,16,17-tetradecahydro-1H-cyclopenta[a]phenanthren-17-yl)pentan-1-one] | > 6.60 | < 5.00 |  |
| C[C@H](CCC(=O)N1CCN(C(=O)c2ccns2)CC1)[C@H]1CC[C@H]2[C@@H]3CC=C4C[C@@H](O)CC[C@]4(C)[C@H]3CC[C@]12C [Example 311, (R)-4-((3S,8S,9S,10R,13R,14S,17R)-3-hydroxy-10,13-dimethyl-2,3,4,7,8,9,10,11,12,13,14,15,16,17-tetradecahydro-1H-cyclopenta[a]phenanthren-17-yl)-1-(4-(isothiazole-5-carbonyl)piperazin-1-yl)pentan-1-one] | > 6.60 | < 5.00 |  |
| CCC1(OC)CCCN(C(=O)CC[C@@H](C)[C@H]2CC[C@H]3[C@@H]4CC=C5C[C@@H](O)CC[C@]5(C)[C@H]4CC[C@]23C)C1 (stereo partly drawn) [Example 519, (R)-1-((R)-3-ethyl-3-methoxypiperidin-1-yl)-4-((3S,8S,9S,10R,13R,14S,17R)-3-hydroxy-10,13-dimethyl-2,3,4,7,8,9,10,11,12,13,14,15,16,17-tetradecahydro-1H-cyclopenta[a]phenanthren-17-yl)pentan-1-one] | > 6.60 | 5.00 to 6.00 |  |
| C[C@H](CCC(=O)N(C)C)[C@H]1CC[C@H]2[C@@H]3C[C@@H](O)[C@H]4C[C@@H](O)CC[C@]4(C)[C@H]3CC[C@]12C [Example C1, (R)-4-((3S,5S,6R,8S,9S,10R,13R,14S,17R)-3,6-dihydroxy-10,13-dimethylhexadecahydro-1H-cyclopenta[a]phenanthren-17-yl)-N,N-dimethylpentanamide] | < 5.00 | < 5.00 |  |
| CC(O)c1cccnc1CC[C@@H](C)[C@H]1CC[C@H]2[C@@H]3CC=C4C[C@@H](O)CC[C@]4(C)[C@H]3CC[C@]12C (stereo partly drawn) [Example 455, (3S,8S,9S,10R,13R,14S,17R)-17-((2R)-4-(3-(1-hydroxyethyl)pyridin-2-yl)butan-2-yl)-10,13-dimethyl-2,3,4,7,8,9,10,11,12,13,14,15,16,17-tetradecahydro-1H-cyclopenta[a]phenanthren-3-ol] | > 6.60 | > 6.60 |  |
| C[C@H](CCC(=O)N1CCN(c2cccnn2)CC1)[C@H]1CC[C@H]2[C@@H]3CC=C4C[C@@H](O)CC[C@]4(C)[C@H]3CC[C@]12C [Example 303, (4R)-4-[(1R,3aS,3bS,7S,9aR,9bS,11aR)-7-hydroxy-9a,11a-dimethyl-1H,2H,3H,3aH,3bH,4H,6H,7H,8H,9H,9aH,9bH,10H,11H,11aH-cyclopenta[a]phenanthren-1-yl]-1-[4-(pyridazin-3-yl)piperazin-1-yl]pentan-1-one] | > 6.60 | < 5.00 |  |
| Cc1ncccc1O[C@@H](C)[C@H]1CC[C@H]2[C@@H]3CC=C4C[C@@H](O)CC[C@]4(C)[C@H]3CC[C@]12C [Example 274, (1S,3aS,3bS,7S,9aR,9bS,11aS)-9a,11a-dimethyl-1-[(1S)-1-[(2-methylpyridin-3-yl)oxy]ethyl]-1H,2H,3H,3aH,3bH,4H,6H,7H,8H,9H,9aH,9bH,10H,11H,11aH-cyclopenta[a]phenanthren-7-ol] | 6.00 to 6.60 | < 5.00 |  |
| CON(C[C@H](C)O)C(=O)CC[C@@H](C)[C@H]1CC[C@H]2[C@@H]3CC=C4C[C@@H](O)CC[C@]4(C)[C@H]3CC[C@]12C [Example 69, (R)-4-((3S,8S,9S,10R,13R,14S,17R)-3-hydroxy-10,13-dimethyl-2,3,4,7,8,9,10,11,12,13,14,15,16,17-tetradecahydro-1H-cyclopenta[a]phenanthren-17-yl)-N—((S)-2-hydroxypropyl)-N-methoxypentanamide] | > 6.60 | 6.00 to 6.60 |  |
| CCN(CC)C(=O)N1CCN(C(=O)CC[C@@H](C)[C@H]2CC[C@H]3[C@@H]4CC=C5C[C@@H](O)CC[C@]5(C)[C@H]4CC[C@]23C)CC1 [Example 212, N,N-diethyl-4-((R)-4-((3S,8S,9S,10R,13R,14S,17R)-3-hydroxy-10,13-dimethyl-2,3,4,7,8,9,10,11,12,13,14,15,16,17-tetradecahydro-1H-cyclopenta[a]phenanthren-17-yl)pentanoyl)piperazine-1-carboxamide] | > 6.60 | < 5.00 |  |
| COCCN(C)C(=O)N1CCN(C(=O)CC[C@@H](C)[C@H]2CC[C@H]3[C@@H]4CC=C5C[C@@H](O)CC[C@]5(C)[C@H]4CC[C@]23C)CC1 [Example 209, 4-((R)-4-((3S,8S,9S,10R,13R,14S,17R)-3-hydroxy-10,13-dimethyl-2,3,4,7,8,9,10,11,12,13,14,15,16,17-tetradecahydro-1H-cyclopenta[a]phenanthren-17-yl)pentanoyl)-N-(2-methoxyethyl)-N-methylpiperazine-1-carboxamide] |  | < 5.00 | > 6.60 |
| CON(CC(=O)O)C(=O)CC[C@@H](C)[C@H]1CC[C@H]2[C@@H]3CC=C4C[C@@H](O)CC[C@]4(C)[C@H]3CC[C@]12C [Example 63, N—((R)-4-((3S,8S,9S,10R,13R,14S,17R)-3-hydroxy-10,13-dimethyl-2,3,4,7,8,9,10,11,12,13,14,15,16,17-tetradecahydro-1H-cyclopenta[a]phenanthren-17-yl)pentanoyl)-N-methoxyglycine] | < 5.00 | 6.00 to 6.60 |  |
| C[C@H](CCC(=O)N1CCC[C@@H](c2ccccc2)C1)[C@H]1CC[C@H]2[C@@H]3CC=C4C[C@@H](O)CC[C@]4(C)[C@H]3CC[C@]12C [Example 76, (R)-4-((3S,8S,9S,10R,13R,14S,17R)-3-hydroxy-10,13-dimethyl-2,3,4,7,8,9,10,11,12,13,14,15,16,17-tetradecahydro-1H-cyclopenta[a]phenanthren-17-yl)-1-((S)-3-phenylpiperidin-1-yl)pentan-1-one] | > 6.60 | 5.00 to 6.00 |  |
